What was measured:
LLC tumor-bearing mice [1] = conditions: as reported previously (ref 8); cited from earlier work
[2] = tested on: p38α MAPK-mediated myogenic differentiation of C2C12 myoblasts; assay: myogenic differentiation of C2C12 myoblasts (MHC expression); type: cell-based, Murine; conditions: 96 hours differentiation
Excerpt: (§1) Western blotting. All procedures were adhered to our previous publication ^12. The following primary antibodies were used: anti-p300 (1:500, sc584, Santa Cruz), anti-C/EBPβ (1:1000, MA1-827, Thermo Fisher), anti-pT188-C/EBPβ (1:1000, 3084, Cell Signaling Technology), anti-TLR4 (1:500, sc16240, Santa Cruz), anti-p38α MAPK (1:500, sc271120, Santa Cruz), anti-p38s MAPK (1:500, 2339, Cell Signaling Technology), anti-p38 MAPK (1:1000, 9212, Cell Signaling Technology), anti-p-p38 MAPK (1:1000, 4511, Cell Signaling Technology), anti-MAFbx (1:1000, AP2041, ECM Bioscience), anti-UBR2 (1:500, NBP1-45243, Novus Biologicals), anti-LC3 (1:2000, NB100-2220, Novus Biologicals) and anti-MHC (1:1000, MAB4470, R&D Systems). Antibody against acetylated Lys-39 of C/EBPβ (1:2000) was generated as previously described ^12. […] (SEQ ID NO: 1). Data were normalized to α-Tubulin (Development Studies Hybridoma Bank at the University of Iowa, Iowa City, Iowa).

[3] = humans, 24 hours after first PO administration of 50 mg; cited from earlier work
UBR2 = assay: LCM-induced UBR2 upregulation in C2C12 myotubes, Western blotting; type: cell-based, Murine; conditions: LCM 8 hours, concentration-dependent
Excerpt: as §1

LLC tumor-bearing mice [4] = assay: muscle wasting in LLC tumor-bearing mice; type: in vivo; conditions: 0.5 mg/kg/day i.p. from day 7 for 2 weeks
Experimental: Mice were euthanized on day 21. The tumor was isolated and weighed, and then the net body weight was measured. Muscle samples were collected immediately for analyses of muscle wasting. […] Catabolic markers in TA muscle lysates were analyzed by Western blotting. […] Grip strength was measured on the day of euthanasia. […] H&E-stained TA cross sections were analyzed for the myofiber cross-sectional area. * signifies a statistically significant difference (p<0.05) determined by one-way ANOVA (FIGS. 5A-E) or Chi-square test (FIG. 5F).
Animal use. Experimental protocols were pre-approved by the institutional Animal Welfare Committee at the University of Texas Health Science Center at Houston. LLC cells (1×10^6 in […]) were injected subcutaneously into the flanks of 8-week-old male C57B16 mice, TLR4^−/− mice in the C57BL/6 background ^17, or p38β MAPK muscle-specific knockout and p38β MAPK-floxed mice in the C57BL/6 background ^18. […] DMSO was injected accordingly as vehicle control. Plasmid encoding the p300-S12A mutant was transfected into TA muscle by electroporation on day 7 and day 14 following LLC implantation as described previously ^12. The contralateral TA was transfected with an empty vector as control. […] On day 21, mice were euthanized, and muscle samples were harvested for further analyses. For survival study, orthotopic implantation of KPC cells was performed based on the procedures by Zhu et al. ^19. Briefly, a longitudinal incision was made to open the abdominal cavity for pancreas exposure. Then, 2×10^6 KPC cells suspended in 20 μl PBS were injected to the tail of pancreas.
as §1
Fluorescence microscopy and histology study. C2C12 myotubes were stained with anti-MHC antibody (1:1000, MAB4470, R&D Systems) and anti-mouse Alexa Fluor® Plus 488 secondary antibody (1:200, A32723, ThermoFisher), and examined using a Zeiss Axioskop 40 microscope and a Zeiss Axiocam MRM camera system controlled by Axiovision Release 4.6 imaging software. Acquired images were edited using the Photoshop software. Myotube diameter was measured in MHC-stained myotubes as previously described ^12. Cross-sectional area of H&E-stained muscle sections was quantified by using the ImageJ software (NIH). Approximately 100 myofibers from each of 5 random views were quantified.

KPC tumor-bearing mice = assay: survival and muscle wasting of mice bearing orthotopic KPC pancreatic tumor; type: in vivo
Experimental: Survival of KPC tumor-bearing mice was recorded and analyzed using the Kaplan-Meier survival curve. […] Forelimb grip strength of the mice was monitored over the course of the survival study. Data were analyzed by 2-way ANOVA. * signifies a statistically significant difference (p<0.05).
At the end point, both of DMSO or nilotinib-treated KPC tumor-bearing mice were euthanized. Tumors were isolated and weighted (left panel). Net body weight was measured (right panel).
Animal use. Experimental protocols were pre-approved by the institutional Animal Welfare Committee at the University of Texas Health Science Center at Houston. LLC cells (1×10^6 in […]) were injected subcutaneously into the flanks of 8-week-old male C57B16 mice, TLR4^−/− mice in the C57BL/6 background ^17, or p38β MAPK muscle-specific knockout and p38β MAPK-floxed mice in the C57BL/6 background ^18. […] DMSO was injected accordingly as vehicle control. Plasmid encoding the p300-S12A mutant was transfected into TA muscle by electroporation on day 7 and day 14 following LLC implantation as described previously ^12. The contralateral TA was transfected with an empty vector as control. Development of cachexia was monitored by body weight and forelimb grip strength test, and usually took place within 21 days after implantation. On day 21, mice were euthanized, and muscle samples were harvested for further analyses. For survival study, orthotopic implantation of KPC cells was performed based on the procedures by Zhu et al. ^19. Briefly, a longitudinal incision was made to open the abdominal cavity for pancreas exposure. Then, 2×10^6 KPC cells suspended in 20 μl PBS were injected to the tail of pancreas.

p38 MAPK = p38 MAPK activation and catabolic response in primary human myotubes treated with H1299 cell-conditioned medium; type: cell-based; conditions: 500 nM
Excerpt: as §1

[5] = tested on: p38β MAPK-mediated activation of p300 and C/EBPβ; assay: LCM-induced p300 activation (Ser-12 phosphorylation) and C/EBPβ acetylation in C2C12 myotubes, Western blotting; type: cell-based, Murine; conditions: LCM 2 h, concentration-dependent
Experimental: Cell cultures. Murine C2C12 myoblasts (American Type Culture Collection, ATCC) and human skeletal myoblasts (GIBCO®) were grown in growth medium (DMEM supplemented with 10% fetal bovine serum) at 37° C. under 5% CO2. Myoblast differentiation was induced at 85% confluence with differentiation medium (DMEM supplemented with 4% heat-inactivated horse serum in) for 96 hrs. Preconditioned medium from 48-hour cultures of Lewis lung carcinoma cells (National Cancer Institute, Frederick, Md.), H1299 human lung carcinoma cells (ATCC) or KPC cells (a gift from Dr. Elizabeth Jaffee of Johns Hopkins University) 14 were collected and centrifuged (1000×g, 5 min). Conditioned medium of non-tumorigenic NL20 cells (human lung epithelial cells, ATCC) was used as control. The supernatant was used to treat myotubes (25% final volume in fresh medium) when indicated and replaced every 24 h. […] All cell lines were tested negative for mycoplasma contamination. Cell culture-based experiments were replicated independently for 3 times.
Western blotting. All procedures were adhered to our previous publication ^12. […]

p38β MAPK = p38β MAPK (Homo sapiens, UniProt Q15759); conditions: p38β MAPK vs p38α MAPK; cited from earlier work
C2C12 myotubes = assay: LCM-induced loss of MHC and myotube mass in C2C12 myotubes; type: cell-based, Murine; conditions: 500 nM, LCM 72 hrs
Excerpt: as §1
Fluorescence microscopy and histology study. […] Myotube diameter was measured in MHC-stained myotubes as previously described ^12. Cross-sectional area of H&E-stained muscle sections was quantified by using the ImageJ software (NIH). Approximately 100 myofibers from each of 5 random views were quantified.

Sequence of p38β MAPK (Q15759 whole entry): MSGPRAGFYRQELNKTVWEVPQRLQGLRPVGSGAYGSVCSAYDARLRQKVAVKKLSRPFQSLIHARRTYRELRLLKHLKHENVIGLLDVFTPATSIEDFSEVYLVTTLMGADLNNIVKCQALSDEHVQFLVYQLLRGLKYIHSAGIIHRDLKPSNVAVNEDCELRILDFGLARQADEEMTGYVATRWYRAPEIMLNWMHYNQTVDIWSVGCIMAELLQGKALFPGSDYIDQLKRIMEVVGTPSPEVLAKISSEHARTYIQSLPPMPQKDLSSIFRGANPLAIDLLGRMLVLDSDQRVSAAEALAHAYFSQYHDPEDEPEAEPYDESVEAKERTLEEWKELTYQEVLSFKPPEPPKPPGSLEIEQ

Compound: Oc1ccc(-c2nc(-c3ccncc3)c(-c3ccc(F)cc3)[nH]2)cc1 [SB202190]
- LLC tumor-induced muscle wasting in mice (LLC tumor-bearing mice [1]): attenuates
- onset of myoblast differentiation (MHC expression at 24 and 48 hours) ([2]; 10 μM): delayed

Compound: Cc1cn(-c2cc(NC(=O)c3ccc(C)c(Nc4nccc(-c5cccnc5)n4)c3)cc(C(F)(F)F)c2)cn1 [nilotinib]
- serum concentration [3]: approximately 400 ng/ml
- LCM-induced upregulation of UBR2 (UBR2): inhibited
- LLC tumor growth (LLC tumor-bearing mice [4]): without affecting tumor growth
- activation of p300 (Ser-12 phosphorylation and Lys-39 acetylation of C/EBPβ) in TA muscle (LLC tumor-bearing mice [4]): abolished
- increase in autophagosome formation (LC3-II levels) (LLC tumor-bearing mice [4]): blockade
- loss of MHC in muscle (LLC tumor-bearing mice [4]): blockade
- loss of TA and EDL weight (LLC tumor-bearing mice [4]): attenuated
- loss of body weight (LLC tumor-bearing mice [4]): protected against the loss of body weight
- loss of muscle strength (grip strength) (LLC tumor-bearing mice [4]): attenuated
- myofiber cross-sectional area in TA (LLC tumor-bearing mice [4]): preserved myofiber mass
- upregulation of E3 ligases UBR2 and atroginl/MAFbx in TA muscle (LLC tumor-bearing mice [4]): blockade
- median survival (KPC tumor-bearing mice; 0.5 mg/kg/day i.p. from day 5 until end point): 31 days
- tumor volume at the end point versus DMSO (KPC tumor-bearing mice; 0.5 mg/kg/day i.p., at end point): without significant difference in tumor volume
- loss of muscle function measured as grip strength (KPC tumor-bearing mice; 0.5 mg/kg/day i.p., over the course of the survival study): attenuated
- C/EBPβ phosphorylation on Thr-188 (p38 MAPK; 1 h): blockade
- p38 MAPK activation by H1299 conditioned medium (p38 MAPK; 1 h): abrogated
- upregulation of E3 ligase UBR2 (p38 MAPK; 8 h): blockade
- C/EBPβ acetylation on Lys-39 [5]: inhibited
- binding affinity for p38β MAPK higher than for p38α MAPK (p38β MAPK): 3 fold
- MHC expression over the course of myoblast differentiation ([2]; 500 nM): did not alter MHC expression
- LCM-induced loss of myosin heavy chain (MHC) (C2C12 myotubes): resistant
- LCM-induced loss of myotube mass (myotube diameters) (C2C12 myotubes): resistant
